Each compound was assayed on SW13 (assay: Cell panel screen (CellTiter-Glo)). Conditions: SW13 (Adrenal gland), 20 micromolar, 72 hrs.
Format: cell-based, human
Summary of the method: (§1)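 Single-concentration screen: 20 μM compound, 72 h, versus DMSO-only untreated cells. Viability read by CellTiter-Glo luminescence; % inhibition = (untreated − treated)/(untreated − no-cell background) × 100. Cells grown in recommended media plus 10% FBS at 37° C.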

Compound	Percent Inhibition
CC1(C)C=Cc2c(cc(O)c3c(=O)c4ccc(O)c(O)c4oc23)O1 [gl-18]	96%

These compounds were tested on HCC1569 (assay: Cell panel screen (CellTiter-Glo)). Conditions: HCC1569 (Breast), 20 micromolar, 72 hrs.
Format: cell-based, human
Summary of the method: as §1

Compound	Percent Inhibition
CC1(C)C=Cc2c(cc(O)c3c(=O)c4ccc(O)c(O)c4oc23)O1 [gl-18]	81%

What follows are compounds tested on BT-474 (assay: Cell panel screen (CellTiter-Glo)). Conditions: BT-474 (Breast), 20 micromolar, 72 hrs.
Format: cell-based, human
Summary of the method: as §1

Compound	Percent Inhibition
CC1(C)C=Cc2c(cc(O)c3c(=O)c4ccc(O)c(O)c4oc23)O1 [gl-18]	92%

Each compound was assayed on T98G (assay: Cell panel screen (CellTiter-Glo)). Conditions: T98G (Brain), 20 micromolar, 72 hrs.
Format: cell-based, human
Summary of the method: as §1

Compound	Percent Inhibition
CC1(C)C=Cc2c(cc(O)c3c(=O)c4ccc(O)c(O)c4oc23)O1 [gl-18]	91%

What follows are compounds tested on TCCSUP (assay: Cell panel screen (CellTiter-Glo)). Conditions: TCCSUP (Urinary bladder), 20 micromolar, 72 hrs.
Format: cell-based, human
Summary of the method: as §1

Compound	Percent Inhibition
CC1(C)C=Cc2c(cc(O)c3c(=O)c4ccc(O)c(O)c4oc23)O1 [gl-18]	85%

What follows are compounds tested on HGC-27 (assay: Cell panel screen (CellTiter-Glo)). Conditions: HGC-27 (Stomach), 20 micromolar, 72 hrs.
Format: cell-based, human
Summary of the method: as §1

Compound	Percent Inhibition
CC1(C)C=Cc2c(cc(O)c3c(=O)c4ccc(O)c(O)c4oc23)O1 [gl-18]	92%

The compounds below were run on C3A (assay: Cell panel screen (CellTiter-Glo)). Conditions: C3A (Liver), 20 micromolar, 72 hrs.
Format: cell-based, human
Summary of the method: as §1

Compound	Percent Inhibition
CC1(C)C=Cc2c(cc(O)c3c(=O)c4ccc(O)c(O)c4oc23)O1 [gl-18]	81%

What follows are compounds tested on J82 (assay: Cell panel screen (CellTiter-Glo)). Conditions: J82 (Urinary bladder), 20 micromolar, 72 hrs.
Format: cell-based, human
Summary of the method: as §1

Compound	Percent Inhibition
CC1(C)C=Cc2c(cc(O)c3c(=O)c4ccc(O)c(O)c4oc23)O1 [gl-18]	88%

These compounds were tested on Colo 205 (assay: Cell panel screen (CellTiter-Glo)). Conditions: Colo 205, 20 micromolar, 72 hrs.
Format: cell-based, human
Summary of the method: as §1

Compound	Percent Inhibition
CC1(C)C=Cc2c(cc(O)c3c(=O)c4ccc(O)c(O)c4oc23)O1 [gl-18]	96%

Each compound was assayed on C8166 (assay: Cell panel screen (CellTiter-Glo)). Conditions: C8166 (Leukemia), 20 micromolar, 72 hrs.
Format: cell-based, human
Summary of the method: as §1

Compound	Percent Inhibition
CC1(C)C=Cc2c(cc(O)c3c(=O)c4ccc(O)c(O)c4oc23)O1 [gl-18]	92%

The compounds below were run on HCC1395 (assay: Cell panel screen (CellTiter-Glo)). Conditions: HCC1395 (Breast), 20 micromolar, 72 hrs.
Format: cell-based, human
Summary of the method: as §1

Compound	Percent Inhibition
CC1(C)C=Cc2c(cc(O)c3c(=O)c4ccc(O)c(O)c4oc23)O1 [gl-18]	94%

The compounds below were run on HEC-1-A (assay: Cell panel screen (CellTiter-Glo)). Conditions: HEC-1-A (Uterus), 20 micromolar, 72 hrs.
Format: cell-based, human
Summary of the method: as §1

Compound	Percent Inhibition
CC1(C)C=Cc2c(cc(O)c3c(=O)c4ccc(O)c(O)c4oc23)O1 [gl-18]	81%

Each compound was assayed on NCI-H28 (assay: Cell panel screen (CellTiter-Glo)). Conditions: NCI-H28 (Lung), 20 micromolar, 72 hrs.
Format: cell-based, human
Summary of the method: as §1

Compound	Percent Inhibition
CC1(C)C=Cc2c(cc(O)c3c(=O)c4ccc(O)c(O)c4oc23)O1 [gl-18]	77%

Each compound was assayed on BT-549 (assay: Cell panel screen (CellTiter-Glo)). Conditions: BT-549 (Breast), 20 micromolar, 72 hrs.
Format: cell-based, human
Summary of the method: as §1

Compound	Percent Inhibition
CC1(C)C=Cc2c(cc(O)c3c(=O)c4ccc(O)c(O)c4oc23)O1 [gl-18]	86%

These compounds were tested on HCC1599 (assay: Cell panel screen (CellTiter-Glo)). Conditions: HCC1599 (Breast), 20 micromolar, 72 hrs.
Format: cell-based, human
Summary of the method: as §1

Compound	Percent Inhibition
CC1(C)C=Cc2c(cc(O)c3c(=O)c4ccc(O)c(O)c4oc23)O1 [gl-18]	92%

The compounds below were run on NCI-H1694 (assay: Cell panel screen (CellTiter-Glo)). Conditions: NCI-H1694 (Lung), 20 micromolar, 72 hrs.
Format: cell-based, human
Summary of the method: as §1

Compound	Percent Inhibition
CC1(C)C=Cc2c(cc(O)c3c(=O)c4ccc(O)c(O)c4oc23)O1 [gl-18]	98%

Each compound was assayed on ZR-75-30 (assay: Cell panel screen (CellTiter-Glo)). Conditions: ZR-75-30 (Breast), 20 micromolar, 72 hrs.
Format: cell-based, human
Summary of the method: as §1

Compound	Percent Inhibition
CC1(C)C=Cc2c(cc(O)c3c(=O)c4ccc(O)c(O)c4oc23)O1 [gl-18]	95%

What follows are compounds tested on HPAF-II (assay: Cell panel screen (CellTiter-Glo)). Conditions: HPAF-II (Pancreas), 20 micromolar, 72 hrs.
Format: cell-based, human
Summary of the method: as §1

Compound	Percent Inhibition
CC1(C)C=Cc2c(cc(O)c3c(=O)c4ccc(O)c(O)c4oc23)O1 [gl-18]	82%

What follows are compounds tested on NCI-H2405 (assay: Cell panel screen (CellTiter-Glo)). Conditions: NCI-H2405 (Lung), 20 micromolar, 72 hrs.
Format: cell-based, human
Summary of the method: as §1

Compound	Percent Inhibition
CC1(C)C=Cc2c(cc(O)c3c(=O)c4ccc(O)c(O)c4oc23)O1 [gl-18]	66%

The compounds below were run on MSTO-211-H (assay: Cell panel screen (CellTiter-Glo)). Conditions: MSTO-211-H (Lung), 20 micromolar, 72 hrs.
Format: cell-based, human
Summary of the method: as §1

Compound	Percent Inhibition
CC1(C)C=Cc2c(cc(O)c3c(=O)c4ccc(O)c(O)c4oc23)O1 [gl-18]	85%

Each compound was assayed on HCC1937 (assay: Cell panel screen (CellTiter-Glo)). Conditions: HCC1937 (Breast), 20 micromolar, 72 hrs.
Format: cell-based, human
Summary of the method: as §1

Compound	Percent Inhibition
CC1(C)C=Cc2c(cc(O)c3c(=O)c4ccc(O)c(O)c4oc23)O1 [gl-18]	85%

The compounds below were run on HT-1197 (assay: Cell panel screen (CellTiter-Glo)). Conditions: HT-1197 (Urinary bladder), 20 micromolar, 72 hrs.
Format: cell-based, human
Summary of the method: as §1

Compound	Percent Inhibition
CC1(C)C=Cc2c(cc(O)c3c(=O)c4ccc(O)c(O)c4oc23)O1 [gl-18]	90%

The compounds below were run on CCF-STTG1 (assay: Cell panel screen (CellTiter-Glo)). Conditions: CCF-STTG1 (Brain), 20 micromolar, 72 hrs.
Format: cell-based, human
Summary of the method: as §1

Compound	Percent Inhibition
CC1(C)C=Cc2c(cc(O)c3c(=O)c4ccc(O)c(O)c4oc23)O1 [gl-18]	81%

These compounds were tested on CW-2 (assay: Cell panel screen (CellTiter-Glo)). Conditions: CW-2 (Colon), 20 micromolar, 72 hrs.
Format: cell-based, human
Summary of the method: as §1

Compound	Percent Inhibition
CC1(C)C=Cc2c(cc(O)c3c(=O)c4ccc(O)c(O)c4oc23)O1 [gl-18]	95%

The compounds below were run on Bel-7402 (assay: Cell panel screen (CellTiter-Glo)). Conditions: Bel-7402 (Liver), 20 micromolar, 72 hrs.
Format: cell-based, human
Summary of the method: as §1

Compound	Percent Inhibition
CC1(C)C=Cc2c(cc(O)c3c(=O)c4ccc(O)c(O)c4oc23)O1 [gl-18]	78%

Each compound was assayed on RL95 (assay: Cell panel screen (CellTiter-Glo)). Conditions: RL95 (Uterus), 20 micromolar, 72 hrs.
Format: cell-based, human
Summary of the method: as §1

Compound	Percent Inhibition
CC1(C)C=Cc2c(cc(O)c3c(=O)c4ccc(O)c(O)c4oc23)O1 [gl-18]	94%

Each compound was assayed on NCI-H524 (assay: Cell panel screen (CellTiter-Glo)). Conditions: NCI-H524 (Lung), 20 micromolar, 72 hrs.
Format: cell-based, human
Summary of the method: as §1

Compound	Percent Inhibition
CC1(C)C=Cc2c(cc(O)c3c(=O)c4ccc(O)c(O)c4oc23)O1 [gl-18]	96%

These compounds were tested on NCI-H2347 (assay: Cell panel screen (CellTiter-Glo)). Conditions: NCI-H2347 (Lung), 20 micromolar, 72 hrs.
Format: cell-based, human
Summary of the method: as §1

Compound	Percent Inhibition
CC1(C)C=Cc2c(cc(O)c3c(=O)c4ccc(O)c(O)c4oc23)O1 [gl-18]	84%

Each compound was assayed on NCI-H1623 (assay: Cell panel screen (CellTiter-Glo)). Conditions: NCI-H1623 (Lung), 20 micromolar, 72 hrs.
Format: cell-based, human
Summary of the method: as §1

Compound	Percent Inhibition
CC1(C)C=Cc2c(cc(O)c3c(=O)c4ccc(O)c(O)c4oc23)O1 [gl-18]	77%

The compounds below were run on Panc 03.27 (assay: Cell panel screen (CellTiter-Glo)). Conditions: Panc 03.27 (Pancreas), 20 micromolar, 72 hrs.
Format: cell-based, human
Summary of the method: as §1

Compound	Percent Inhibition
CC1(C)C=Cc2c(cc(O)c3c(=O)c4ccc(O)c(O)c4oc23)O1 [gl-18]	96%

The compounds below were run on M059J (assay: Cell panel screen (CellTiter-Glo)). Conditions: M059J (Brain), 20 micromolar, 72 hrs.
Format: cell-based, human
Summary of the method: as §1

Compound	Percent Inhibition
CC1(C)C=Cc2c(cc(O)c3c(=O)c4ccc(O)c(O)c4oc23)O1 [gl-18]	91%

The compounds below were run on A498 (assay: Cell panel screen (CellTiter-Glo)). Conditions: A498 (listed under Lung), 20 micromolar, 72 hrs.
Format: cell-based, human
Summary of the method: as §1

Compound	Percent Inhibition
CC1(C)C=Cc2c(cc(O)c3c(=O)c4ccc(O)c(O)c4oc23)O1 [gl-18]	74%

What follows are compounds tested on ChaGo-K-1 (assay: Cell panel screen (CellTiter-Glo)). Conditions: ChaGo-K-1 (Lung), 20 micromolar, 72 hrs.
Format: cell-based, human
Summary of the method: as §1

Compound	Percent Inhibition
CC1(C)C=Cc2c(cc(O)c3c(=O)c4ccc(O)c(O)c4oc23)O1 [gl-18]	91%

The compounds below were run on NCI-H1770 (assay: Cell panel screen (CellTiter-Glo)). Conditions: NCI-H1770 (Lung), 20 micromolar, 72 hrs.
Format: cell-based, human
Summary of the method: as §1

Compound	Percent Inhibition
CC1(C)C=Cc2c(cc(O)c3c(=O)c4ccc(O)c(O)c4oc23)O1 [gl-18]	89%

What follows are compounds tested on T47D (assay: Cell panel screen (CellTiter-Glo)). Conditions: T47D (Breast), 20 micromolar, 72 hrs.
Format: cell-based, human
Summary of the method: as §1

Compound	Percent Inhibition
CC1(C)C=Cc2c(cc(O)c3c(=O)c4ccc(O)c(O)c4oc23)O1 [gl-18]	83%

The compounds below were run on A704 (assay: Cell panel screen (CellTiter-Glo)). Conditions: A704 (Kidney), 20 micromolar, 72 hrs.
Format: cell-based, human
Summary of the method: as §1

Compound	Percent Inhibition
CC1(C)C=Cc2c(cc(O)c3c(=O)c4ccc(O)c(O)c4oc23)O1 [gl-18]	66%

Reference: PMC4450297, “Screening Active Compounds from Garcinia Species Native to China Reveals Novel Compounds Targeting the STAT/JAK Signaling Pathway” (BioMed Research International, 2015)
